{"source": "patent US10596145B2", "about": "“Heterocyclic flavone derivatives, compositions, and methods related thereto” (Emory University, priority 2012, dated 2020)", "key": {"[1]": {"target": "T1, TrkB (Rattus norvegicus, UniProt Q63604)", "T1 construct": "endogenous in cells; host or cells: primary cortical neurons from E17 rat embryos", "T1 sequence (Q63604 32-821)": "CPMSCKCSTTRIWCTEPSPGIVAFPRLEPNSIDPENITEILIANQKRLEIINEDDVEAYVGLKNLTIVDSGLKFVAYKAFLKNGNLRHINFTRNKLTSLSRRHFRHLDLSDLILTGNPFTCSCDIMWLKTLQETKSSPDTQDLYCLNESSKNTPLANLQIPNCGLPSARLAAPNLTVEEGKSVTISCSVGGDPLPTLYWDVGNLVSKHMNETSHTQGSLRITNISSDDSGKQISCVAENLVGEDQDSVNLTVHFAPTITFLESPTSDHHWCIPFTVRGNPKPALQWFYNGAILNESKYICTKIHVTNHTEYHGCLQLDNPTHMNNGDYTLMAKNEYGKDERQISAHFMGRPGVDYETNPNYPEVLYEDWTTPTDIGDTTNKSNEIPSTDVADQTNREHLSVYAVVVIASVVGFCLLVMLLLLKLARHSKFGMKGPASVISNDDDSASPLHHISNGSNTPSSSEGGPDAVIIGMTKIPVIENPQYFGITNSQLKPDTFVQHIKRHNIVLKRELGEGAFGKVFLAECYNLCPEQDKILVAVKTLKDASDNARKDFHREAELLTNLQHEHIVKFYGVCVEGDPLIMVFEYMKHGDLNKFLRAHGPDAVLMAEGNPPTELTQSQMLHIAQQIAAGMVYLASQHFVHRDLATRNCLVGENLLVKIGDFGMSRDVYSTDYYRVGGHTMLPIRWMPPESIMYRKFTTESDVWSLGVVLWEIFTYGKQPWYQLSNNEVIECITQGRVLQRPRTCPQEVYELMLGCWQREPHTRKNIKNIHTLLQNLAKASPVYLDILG", "experiment": "TrkB activation in primary cortical neurons (immunoblotting)", "type": "cell-based", "conditions": "500 nM, 15 min", "experimental": "Primary cortical cultures from E17 rat embryos were treated with 500 nM of various synthetic flavone derivatives for 15 min. The cell lysates (20 μg) were analyzed by the immunoblotting.\nRat primary neurons were treated with 500 nM various indicated compounds from 15 min. The neuronal lysates ([…]) were analyzed with various antibodies.\n500 nM of different synthetic compounds were added to DIV 7 neurons for 15 min. The cell lysates were analyzed by immunoblotting with indicated p-Akt 473 antibodies.\nReplacing the 3′-dimethylamino group or 4′-morpholino group was tested for TrkB agonistic activity. To compare the TrkB activation by these compounds, primary cortical cultures were prepared and treated them with 500 nM of various compounds for 15 min and collected the cell lysates. […] The p-Akt ELISA analysis results were similar to the TrkB activation pattern (FIG. 2B, lower panel)."}, "[2]": {"experiment": "In vivo metabolism studies of 7,8-DHF", "source_text": "Among the modifications, glucuronidation and sulfation are thought to be responsible for the in vivo metabolism of the flavonoids. In addition, the O-methylated metabolites were detected in both the plasma and brain samples after oral administration. These modification pathways may explain the relatively short half-life of 7,8-DHF. Alteration of this labile group into the bioisosteric imidazole derivative escalates the PK profiles in compound o."}, "[3]": {"experiment": "Metabolite investigation of the methylated metabolites of 7,8-DHF", "experimental": "In order to increase the hydrophobicity, EU-B-related compounds were prepared by keeping the urea functional group. In metabolite investigation of the methylated metabolites of 7,8-DHF, it was discovered that that 7-methoxy-8-hydroxy metabolite is active. A methyl group was added on the urea group."}, "[4]": {"experiment": "In vivo pharmacokinetic studies in mice", "set-up": "species or system mouse", "conditions": "mice", "experimental": "For compound a, the standard dosage of 1 mg/kg via i.v. injection and 5 mg/kg for P.O. route was employed. […] Presumably, the dosage is too low for the in vivo PK assay. Thus, the doses of the tested compound o were increased. […] Moreover, the bioavailability is around 2% for compound o at a 10 mg/kg dosage.\nTwenty to thirty grams mice within the age of 6-8 weeks old were administrated with the indicated compounds i. v. or orally. At different time points (3, 10, 30, 60, 120, 240, 360 and 480 min), blood aliquots (300-400 μl) were collected in tubes coated with lithium heparin, mixed gently, then kept on ice and centrifuged at 2500×g for 15 min at 4° C., within 1 h of collection. The plasma was then harvested and kept frozen at −20° C. until further processing. For each time point, 3 mice/group were employed. The plasma samples were analyzed by HPLC."}, "[5]": {"target": "T2, TrkB (Mus musculus, UniProt P15209)", "T2 construct": "from tissue; host or cells: mouse brain (hippocampus, cortex), C57BL/6", "T2 sequence (P15209 32-821)": "as the sequence (Q63604 32-821) above, with M3T, T9S, T10A, I32V, K63R, G84S, T153M, I185L, T394S, N770S counted along it", "experiment": "TrkB phosphorylation in mouse brain after oral administration (immunoblotting, immunohistochemistry)", "type": "in vivo", "experimental": "One mg/kg of various indicated compounds were orally administrated into C57 BL/6J mice and TrkB phosphorylation and its downstream signaling cascades including Akt and MAPK in the hippocampus of mouse brain were analyzed by immunoblotting at 4 h. […] The downstream p-Akt and p-MAPK activity coupled to the TrkB activation patterns.\nTime course assay with 4′-dimethylamino-7,8-imidazole flavone. One mg/kg of compound (i) and compound (m) were orally administrated into C57 BL/6J mice and TrkB phosphorylation and its downstream signaling cascades including Akt in mouse brain were analyzed by immunoblotting at various time points. TrkB activation by compound m peaked at 4 h, whereas the maximal TrkB activation by compound i in mouse brain occurred at 1-2 h. Arrows indicate the p-TrkB in mature glycosylated or unglycosylated forms (top panels). The downstream Akt activation pattern tightly correlated with the upstream TrkB activation.\n(§1) Male C57BL/6 mice aged of two months were administrated orally with 4′-DMA-7,8-DHF derivatives at a single dose of 1 mg/kg for 4 h. The control mice were injected with saline. The mice were sacrificed and brains were homogenated and ultracentrafuged. The supernatant (40 μg) was employed for SDS-PAGE and immunoblotting analysis with indicated antibodies, respectively. Male C57BL/6 mice aged of two months were administrated orally with compound (i) or (m) at the dose of 5 mg/kg/day each and compound o or p at the dose of 2.5 mg/kg/day each for 21 days. BrdU (100 mg/kg) was i. p. injected two hours before the TrkB agonist treated animals were sacrificed and the hippocampal section lysates were analyzed by immunoblotting with p-TrkB and total TrkB antibodies, p-AKT ELISA.\nBrain tissues were fixed in 4% paraformaldehyde overnight followed by paraffin embedding. Sections of 6 μm were cut. For immunohistochemical staining, brain sections were deparaffinized in xylene and rehydrated in graded alcohols. Endogenous peroxidase activity was blocked by 3% hydrogen peroxide for 5 min and all slides were boiled in 10 mM sodium citrate buffer (pH 6.0) for 10 min. Phosphorylated TrkB 816 and TrkB were detected using specific antibodies. Paraffin section were deparaffinized in xylene and rehydrated gradient ethanol solution. Samples were boiled in 10 mM sodium citrate buffer for 20 min for antigen retrieval purpose. Brain sections were incubated with anti-TrkB (BD Biosciences, San Jose, Calif.) 1:50, p-TrkB 1:300 dilution. Secondary antibody was applied using anti-rabbit-Alexa 594 (red), anti-mouse-fluorescein isothiocyanate (FITC) (green). DAPI (blue) was used for nuclear staining."}, "[6]": {"tested_on": "Akt", "experiment": "Downstream Akt activation in mouse brain (p-Akt immunoblotting, p-Akt 473 ELISA)", "type": "in vivo", "experimental": "PathScan Phospho-Akt1 (Ser473) Sandwich ELISA kit was purchased from Cell Signaling (Cat. #7160). 100 μl sample in sample diluent (supplied in the kit) was added to each well and incubated overnight at 4° C. After 4× wash with 200 ul wash buffer (supplied in the kit), 100 ul/well detection antibody was added and incubated for 1 hour at 37° C. After 4× wash, 100 μl of HRP-linked secondary antibody (supplied in the kit) was added and incubated for 30 minutes at 37° C. After a final wash, 100 μl of TMB substrate was added to each well and incubated for 10 minutes at 37° C. The reaction was stopped by adding 100 μl/well stop solution. Record the values of each well using microplate reader at 450 nm and 650 nm. The optical density was determined by the subtraction of the reading at 650 nm from the reading s at 450 nm.\nas §1"}, "[7]": {"tested_on": "HepG2 cells", "experiment": "In vitro cytotoxicity assay with HepG2 cells", "type": "cell-based", "conditions": "micronucleus and comet assays", "experimental": "HepG2 cells were treated with various concentrations of flavonoids for 24 h. The drug-treated cells were subjected to trypan blue exclusive assay. Data are presented as mean±SEM. (n=3, ***P<0.0001 vs vehicle).\nIn vitro and in vivo ADMET (ADME plus toxicity) of certain compounds were examined. […] Micronuclei formation is an important endpoint in genotoxicity study. […] Next, a Comet assay was performed with 100 μM drug-treated HepG2 cells. As a positive control, etoposide, a topoisomerase inhibitor, which causes DNA strand breaks was used."}, "[8]": {"target": "T3, CYP1A2 (Homo sapiens, UniProt P05177)", "T3 sequence (P05177 1-516)": "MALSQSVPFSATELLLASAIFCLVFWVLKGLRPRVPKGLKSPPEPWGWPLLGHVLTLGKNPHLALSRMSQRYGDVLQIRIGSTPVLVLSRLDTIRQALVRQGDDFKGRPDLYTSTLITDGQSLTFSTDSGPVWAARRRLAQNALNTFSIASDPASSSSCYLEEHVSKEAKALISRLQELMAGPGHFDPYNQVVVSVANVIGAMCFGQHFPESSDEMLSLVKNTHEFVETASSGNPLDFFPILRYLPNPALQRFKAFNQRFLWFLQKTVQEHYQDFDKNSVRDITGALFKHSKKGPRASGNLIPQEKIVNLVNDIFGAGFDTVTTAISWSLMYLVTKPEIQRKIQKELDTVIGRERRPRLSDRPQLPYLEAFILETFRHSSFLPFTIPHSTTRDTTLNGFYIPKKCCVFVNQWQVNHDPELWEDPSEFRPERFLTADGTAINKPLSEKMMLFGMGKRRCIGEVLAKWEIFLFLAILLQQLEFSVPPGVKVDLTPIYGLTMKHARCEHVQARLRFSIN", "experiment": "CYP screen inhibition", "type": "in vitro ADME", "conditions": "at 3 μM", "experimental": "At 30 μM, the inhibition patterns contained similar trends. To test the possible cardiovascular toxicity, hERG inhibition triggered by compound o was examined."}, "[9]": {"tested_on": "C57BL/6J mice", "experiment": "Forced swim test", "type": "in vivo, mouse", "conditions": "2.5 mg/kg oral, 21 days", "experimental": "Male C57BL/6J mice (6 mice/group) were orally administrated by gavage with 5 mg/kg compound (m) or compound (i) and vehicle solvent saline for 21 days and subjected to a forced swim test (6 min, immobility recorded in the last 4 min). Data are presented as mean±SEM. (n=6, ***P<0.0001 vs vehicle, Student t-test).\nForced swim test. Male C57BL/6J mice (8 mice/group) were orally administrated by gavage with 2.5 mg/kg compound o or compound p and vehicle solvent saline for 21 days and subjected to a forced swim test (6 min, immobility recorded in the last 4 min). […] Data are presented as mean±SEM.\nAdult male mice (2-3 months old) were randomly submitted to a forced swim test without a preswim. Test compounds were orally administrated by gavage for 21 days. The mice were allowed to adapt to the test room for 2 days. The mice were placed in a clear glass cylinder with a diameter of 16 cm, half-filled with clear water at 24° C."}, "[10]": {"experiment": "Reactive metabolic screening assay", "type": "in vitro ADME", "conditions": "liver microsomal lysates", "source_text": "(§2) To explore these compounds' in vitro ADMET profiles, we conducted numerous in vitro assays."}, "[11]": {"experiment": "Human liver microsomal stability assay", "type": "in vitro ADME", "conditions": "human liver microsomes, 1 h incubation", "source_text": "as §2"}, "[12]": {"tested_on": "C57BL/6J mice", "experiment": "Locomotor activity assay", "type": "in vivo, mouse", "conditions": "2.5 mg/kg oral, 3 weeks", "experimental": "The above drug-treated mice were subjected locomotor activity at day 22. […] Data are presented as mean±SEM.\nLocomotor activity was assessed using an automated system (San Diego Instruments, La Jolla, Calif., USA) with photobeams that recorded ambulations (consecutive beam breaks). Drug-treated mice were placed in the locomotor chambers, and their activity was recorded for 2 h with 30 min interval."}}, "note": "Entries after “also recorded” stand apart in the source; their conditions may differ."}
{"smiles": "CN(C)c1cccc(-c2cc(=O)c3ccc(O)c(O)c3o2)c1", "note": "[3′-dimethylamino-7,8-DHF]", "values": [{"measurement": "TrkB activation (p-TrkB immunoblotting)", "setting": "[1]", "value": "comparable activity as compound a"}]}
{"smiles": "O=c1cc(-c2ccc(N3CCOCC3)cc2)oc2c(O)c(O)ccc12", "note": "[4′-morpholino-7,8-DHF]", "values": [{"measurement": "TrkB activation (p-TrkB immunoblotting)", "setting": "[1]", "value": "comparable activity as compound a"}]}
{"smiles": "O=c1cc(-c2ccccc2)oc2c(O)c(O)ccc12", "note": "[7,8-DHF, 7,8-dihdyroxyflavone]", "values": [{"measurement": "in vivo metabolic modifications", "setting": "[2]", "value": "subjected to oxidation, glucuronidation, sulfation and methylation"}]}
{"smiles": "COc1ccc2c(=O)cc(-c3ccccc3)oc2c1O", "note": "[7-methoxy-8-hydroxy metabolite]", "values": [{"measurement": "activity of methylated metabolite", "setting": "[3]", "value": "is active"}]}
{"smiles": "CN(C)c1ccc(-c2cc(=O)c3ccc(O)c(O)c3o2)cc1", "note": "[compound a, 4′-DMA-7,8-DHF, reference compound]", "values": [{"measurement": "AUClast", "setting": "[4]; 1 mg/kg i.v.", "value": "about 5930 min*ng/ml"}, {"measurement": "in vivo half-life, t1/2", "setting": "[4]; 1 mg/kg i.v.", "value": "around 9 min"}, {"measurement": "bioavailability", "setting": "[4]; 5 mg/kg P.O.", "value": "not measurable"}, {"measurement": "TrkB activation in mouse brain", "setting": "[5]; 1 mg/kg oral, hippocampus, at 4 h", "value": "activated the TrkB receptor; also recorded: strongest TrkB stimulatory effect"}, {"measurement": "downstream p-Akt and p-MAPK signalings", "setting": "[6]; 1 mg/kg oral, at 4 h", "value": "strongly activated"}]}
{"smiles": "O=c1cc(-c2ccc(N3CCCC3)cc2)oc2c1ccc1nc[nH]c12", "note": "[compound n, 8-(4′-(pyrrolidino-)phenyl)chromeno[7,8-d]imidazol-6(1H)-one]", "values": [{"measurement": "cytotoxicity or genotoxicity (overall conclusion)", "setting": "[7]", "value": "negligible cytotoxicity or genotoxicity"}]}
{"smiles": "O=c1cc(-c2ccc(N3CCCC3)cc2)oc2c1ccc1cc[nH]c12", "note": "[compound p, 2-(4-(pyrrolidin-1-yl)phenyl)pyrano[3,2-g]indol-4(9H)-one]", "values": [{"measurement": "TrkB phosphorylation after chronic treatment (immunoblotting)", "setting": "[5]; 2.5 mg/kg/day oral, 21 days", "value": "markedly activated TrkB receptor; also recorded: evidently elevated TrkB phosphorylation"}, {"measurement": "TrkB phosphorylation in hippocampus (immunohistochemistry, anti-p-TrkB 816)", "setting": "[5]; 2.5 mg/kg/day oral, chronic", "value": "elevated TrkB phosphorylation in hippocampus"}, {"measurement": "CYP1A2 inhibition", "setting": "[8]", "value": 37.4, "unit": "%"}, {"measurement": "Akt activation (quantitative p-Akt ELISA)", "setting": "[6]; 2.5 mg/kg/day oral, 3 weeks", "value": "notably activated Akt"}, {"measurement": "immobility in forced swim test", "setting": "[9]", "value": "but not compound p significantly decreased the immobility"}, {"measurement": "TrkB activation (p-TrkB immunoblotting)", "setting": "[1]", "value": "higher activity than compound m"}, {"measurement": "reactive metabolite / adduct formation", "setting": "[10]", "value": "formed numerous adducts"}, {"measurement": "remaining unchanged after incubation", "setting": "[11]", "value": 1.2, "unit": "%"}, {"measurement": "locomotor activity", "setting": "[12]", "value": "neither compound o nor p altered the motion activity"}, {"measurement": "cytotoxicity or genotoxicity (overall conclusion)", "setting": "[7]", "value": "negligible cytotoxicity or genotoxicity"}]}
